Laboratory results: US20250164396A1, “METHOD FOR VISUALIZING DENATURED STATE OR AGGREGATED STATE OF PROTEIN” (TOHOKU UNIVERSITY, priority 2022, published 2025)
Blank lines part the entries; values can stand above or below the molecule they belong to.

What was measured:
[1] = target: T1, bovine carbonic anhydrase (CAII) (Bos taurus, UniProt P00921); test: Detection of heat-denatured CAII in HEK293FT cell disruption solution by two-dimensional electrophoresis, with or without ligand; type: binding
T1 construct: purchased Aldrich C3934
T1 sequence (P00921 whole entry): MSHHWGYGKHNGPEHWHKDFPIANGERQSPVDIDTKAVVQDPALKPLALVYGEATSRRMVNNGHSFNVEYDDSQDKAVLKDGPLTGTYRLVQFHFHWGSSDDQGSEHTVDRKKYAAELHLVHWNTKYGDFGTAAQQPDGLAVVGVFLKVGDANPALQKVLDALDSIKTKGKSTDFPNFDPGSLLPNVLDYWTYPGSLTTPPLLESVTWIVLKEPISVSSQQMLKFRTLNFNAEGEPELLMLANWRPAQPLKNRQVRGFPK
Protocol: Thereafter, centrifugation was performed at 14,000×g for 10 minutes, and the supernatant was collected. […] The PCR tube was heated in a thermal cycler (Applied Biosystems, Mini Amp Plus) at 65° C. for 5 minutes and then allowed to stand at room temperature. The subsequent protocol to prepare two-dimensional electrophoresis samples was performed in the following two ways.
(Protocol to collect all proteins) A sample was prepared according to the protocol of the ReadyPrep 2-D cleanup kit (Bio-Rad), and the final pellets obtained were dissolved in 15 μL of swelling buffer (containing ampolyte, pH: 3-10) included with the Auto2D Glycine Type Reagent Kit.
(Protocol to collect pellets) The heated sample was centrifuged (at 20,000×g for 20 minutes), the supernatant was discarded, and the remaining pellets were dissolved in 15 μL of swelling buffer (containing ampolyte, pH: 3-10) included with the Auto2D Glycine Type Reagent Kit.
Two-dimensional electrophoresis was performed according to the long-term protocol of Auto 2D Plus (Merck), and fluorescence images of the resulting gel were obtained using a fluorescence imager (Vilver Lourmat, Fusion Solo S). […] The ONBD compound used was iPrONBD described above.

α-Synuclein fibril = target: T2, α-Synuclein fibril (Homo sapiens, UniProt P37840); test: Quantification of aggregated state of α-synuclein fibril by probe fluorescence; conditions: 500 nM fibril, 37° C.; FIG. 3
T2 construct: purchased Cosmo Bio Co., Ltd. SYN03
Protocol: α-Synuclein fibril (Cosmo Bio Co., Ltd., SYN03) was diluted with 10 mM MES buffer (pH: 7.4) to prepare a 500 nM solution. The solution was dispensed in 50 μL portions in a 96-well half well black plate (Greiner, 675086). […] The fluorescence (using filters for Ex: […]) was measured in a plate reader (Teccan, Infinite 200 Pro F PLEX) under constant temperature conditions at 37° C. with plate shaking at 1 second per minute. The ONBD compounds used were three types: iPrONBD and octylONBD described above, as well as PEGONBD shown below.

[2] = target: T3, Bovine carbonic anhydrase (Bos taurus, UniProt P00921); test: Fluorescence response of ONBD probes to heat denaturation of carbonic anhydrase; conditions: 1 mM ONBD compound; heated from 25° C. by 5° C. every 180 seconds; FIG. 1
T3 construct: purchased Aldrich C3934
T3 sequence (P00921 whole entry): as above
Protocol: The PCR tube was heated with a protocol to increase the temperature by 5° C. every 180 seconds from 25° C. using a real-time PCR system (Takara Bio Inc., Thermal Cycler Dice, TP800). The fluorescence (FAM mode for ONBD compounds) was measured at the last 15 seconds of each step. Sypro Orange (Invitrogen S6650, 5000× concentration in DMSO) of the comparison target was added to a final concentration of 10×, the same operation was carried out, and the fluorescence was measured in ROX mode. The ONBD compounds used were the following five types: MeONBD, iPrONBD, nBuONBD, iBuONBD, and octylONBD.

HSP90 [3] = test: SDS-PAGE fluorescence detection of denatured HSP90 in HeLa cell lysate, with or without geldanamycin; type: binding; conditions: probe 1 mM, geldanamycin 50 μM, each temperature for 5 minutes, pellet fraction; FIG. 16
Protocol: HeLa cells were scraped with a scraper and washed three times with ice-cold PBS, and a protease inhibitor cocktail (Nacalai, 25955-24) was resuspended in ice-cold M-PER buffer (Thermo Fisher Scientific, 78503) and allowed to stand on ice for 10 minutes. After centrifugation at 20,000×g for 20 minutes at 4° C., the supernatant was separated from the cell lysate. The protein concentration was determined by using the BCA method. To the supernatant (2 mg/ml), the same amount of geldanamycin (TCI, […]; final concentration: 50 μM) and DMSO were added, followed by treatment at room temperature for 10 minutes. […] A stock solution (DMSO solution) of 100 mM ONBD was added to the sample to a final concentration of 1 mM and allowed to stand at 37° C. for 30 minutes, and the solution was then transferred to a PCR tube. The PCR tube was heated using a thermal cycler (MiniAmp Plus) at each temperature for 5 minutes and then allowed to stand at room temperature. The sample was centrifuged at 20,000×g for 15 minutes at 4° C. In 1D SDS-PAGE (Bio-Rad, 4-10% acrylamide gel) of the pellet fraction, SDS-PAGE was performed while mixing with 1×SDS sample buffer and heating for 5 minutes at 95° C. Using various probes, SDS-PAGE was performed in the same manner as in Example 17 under heating conditions of 45° C. for 5 minutes (FIG. 17). […]

HSP90 [4] = test: Two-dimensional electrophoresis of probe-labelled HeLa lysate, denatured HSP90 with or without geldanamycin; type: binding; conditions: probe 1 mM, geldanamycin 50 μM, 45° C. for 5 minutes, total protein; FIG. 18
Protocol: HeLa cells were scraped with a scraper and washed three times with ice-cold PBS, and a protease inhibitor cocktail (Nacalai, 25955-24) was resuspended in ice-cold M-PER buffer (Thermo Fisher Scientific, 78503) and allowed to stand on ice for 10 minutes. After centrifugation at 20,000×g for 20 minutes at 4° C., the supernatant was separated from the cell lysate. The protein concentration was determined by using the BCA method. To the supernatant (2 mg/ml), the same amount of geldanamycin (TCI, […]; final concentration: 50 μM) and DMSO were added, followed by treatment at room temperature for 10 minutes. […] A stock solution (DMSO solution) of 100 mM iPrONBD was added to the sample to a final concentration of 1 mM and allowed to stand at 37° C. for 30 minutes, and the solution was then transferred to a PCR tube. The PCR tube was heated using a thermal cycler (MiniAmp Plus) at 45° C. for 5 minutes and then allowed to stand at room temperature. A sample was prepared according to the protocol of the ReadyPrep 2-D cleanup kit (Bio-Rad), and the final pellets obtained were dissolved in 15 μL of swelling buffer (containing ampolyte, pH: 3-10) included with the Auto2D Glycine Type Reagent Kit, followed by two-dimensional electrophoresis (FIG. 18).

- suitability as probe under the denaturation conditions ([1]; 65° C., 5 minutes): appropriate probe
Compound: O=[N+]([O-])c1ccc(Br)c2nonc12 [Br-NBD]
- reduction in the fluorescence intensity of CA by brinzolamide, comparison of probes ([1]; iPrONBD versus BrNDB, FIG. 15): the reduction in the fluorescence intensity of CA was more significant

Compound: CCCCCCCCOc1ccc([N+](=O)[O-])c2nonc12 [octylONBD]
- increase in fluorescence intensity over time in the presence of α-synuclein fibril (α-Synuclein fibril): the increase in the fluorescence intensity was significant

Compound: CC(C)Oc1ccc([N+](=O)[O-])c2nonc12 [iPrONBD]
- increase in the fluorescence intensity on heating [2]: the increase in the fluorescence intensity was significant
- visualization of ligand-induced heat denaturation resistance of HSP90 by probe fluorescence (HSP90 [3]): it was possible to visualize the acquisition of target heat denaturation resistance by ligand addition
- visualization of ligand-induced change in heat denaturation resistance of HSP90 by probe fluorescence (HSP90 [4]): it was possible to visualize changes in the heat denaturation resistance of the target HSP90 by ligand addition
